For one series, the system named is K562. Kind of series: (§1) Cytotoxicity against human K562 cells assessed as radioactive thymidine incorporation after 24 hrs. It is filed as cell-based. As to conditions: k562, 24 h; for CC50: 24 h. (In general: Incorporation of labelled thymidine or its analogues reports DNA synthesis.)
Series [1] deals with Plasmodium falciparum. The series is described as follows: Antimalarial activity against Plasmodium falciparum 3D7 in human erythrocytes after 48hrs by [3H]hypoxanthine uptake. Format: functional, organism-based.
For a further series, the system named is Toxoplasma gondii. The series is described as follows: Antitoxoplasmal activity against Toxoplasma gondii RH-beta1 in HFF cells assessed as beta-galactosidase activity after 48 to 72 hrs by colorimetric microtiter assay. It is filed as functional, organism-based.
A short description of series [2]: Selectivity index, ratio of CC50 for human K562 cells to IC50 for Toxoplasma gondii RH-beta1. Format: functional.
Series [3] concerns Plasmodium falciparum. Kind of series: Antimalarial activity against Plasmodium falciparum K1. Format: functional, organism-based.
Series [4] is described as follows: as §1. Format: cell-based. The conditions noted are these: K562 cells.
Series [5] is described as follows: Selectivity index, ratio of CC50 for human K562 cells to IC50 for Plasmodium falciparum 3D7. Format: functional.
The mark [6] stands for this setting: Toxoplasma gondii, RH-beta1, HFF.

The term IC50 denotes the midpoint of a concentration-inhibition curve. One may read the CC50 as the concentration at which the toxic effect on the cells reaches its halfway point.

Some results are limits rather than exact numbers.

On to `O=C1C=CC2(C=C1)CC[C@]1(CC(O)C[C@]3(CCC4(C=CC(=O)C=C4)O3)O1)O2` (some centres undefined), for which the Activity entry in the series on K562 is “Toxic”. For the same compound, the IC50 in the series on Plasmodium falciparum [1] (Plasmodium falciparum, 3D7) amounted to 0.584 µM; with Toxoplasma gondii (setting [6]), 1.5 µM. Also, in series [2], the “Selectivity Index” value is 35.
On to `CCCCCCCCCCCCC[C@@H]1C[C@H](O)C[C@@]2(CCC3(C=CC(=O)C=C3)O2)O1`, for which the CC50 with K562 is 25.5 µM. Moreover, the IC50 is 0.288 µM with Plasmodium falciparum [1], 0.309 µM with Toxoplasma gondii (setting [6]) and 0.18 µM in the series with Plasmodium falciparum [3].
Consider `CCCCCCCCCCCCCC(=O)OC1C[C@]2(CCC3(C=CC(=O)C=C3)O2)O[C@]2(CCC3(C=CC(=O)C=C3)O2)C1` (some centres undefined), for which the CC50 at 24 h in series [4] came out at 11.3 µM. For the same compound, the IC50 with Plasmodium falciparum [1] (Plasmodium falciparum, 3D7) was 0.092 µM; in the series on Toxoplasma gondii (setting [6]), 0.636 µM. Besides, the “Selectivity Index” value in series [5] is recorded as 123.
Turning to `CCCCCCCCCCCCCC(=O)O[C@@H]1C[C@]2(CCC3(C=CC(=O)C=C3)O2)O[C@]2(CCC3(C=CC(=O)C=C3)O2)C1`, in series [4], the CC50 at 24 h was 8.75 µM. Besides, the IC50 in the series on Plasmodium falciparum [1] (Plasmodium falciparum, 3D7) was determined as 0.081 µM; in the series on Toxoplasma gondii (setting [6]), 0.346 µM. The “Selectivity Index” value in series [5] is 109.
As for `CCCCCCCCCCCCCC(=O)CC(=O)O[C@@H]1C[C@]2(CCC3(C=CC(=O)C=C3)O2)O[C@]2(CCC3(C=CC(=O)C=C3)O2)C1`, the CC50 at 24 h in series [4] is below 0.38 µM. The compound further gave an IC50 in the series with Plasmodium falciparum [1] (Plasmodium falciparum, 3D7) of 0.12 µM. The “Selectivity Index” value in series [5] and in series [2] was 35 throughout.
In the case of `O=C1C=CC2(C=C1)CC[C@]1(C[C@@H](O)C[C@@]3(CCC4(C=CC(=O)C=C4)O3)O1)O2`, the CC50 at 24 h in series [4] is 0.39 µM. Besides, the IC50 in the series on Plasmodium falciparum [1] (Plasmodium falciparum, 3D7) turned out to be 0.414 µM; in the series with Toxoplasma gondii (setting [6]), 0.173 µM. The “Selectivity Index” value in series [5] and in series [2] was 35 in each case.
For the compound `CCCCCCC(=O)O[C@@H]1C[C@]2(CCC3(C=CC(=O)C=C3)O2)O[C@]2(CCC3(C=CC(=O)C=C3)O2)C1`, the CC50 at 24 h in series [4] is below 0.38 µM. Further, the IC50 in the series with Plasmodium falciparum [1] (Plasmodium falciparum, 3D7) was 0.343 µM. Further, the “Selectivity Index” value in series [5] and in series [2] was 35 throughout.
Consider `CCCCCCC(=O)OC1C[C@]2(CCC3(C=CC(=O)C=C3)O2)O[C@]2(CCC3(C=CC(=O)C=C3)O2)C1` (some centres undefined), for which, in series [4], the CC50 at 24 h was below 0.38 µM. Further, the IC50 with Plasmodium falciparum [1] (Plasmodium falciparum, 3D7) came out at 0.331 µM. In series [2], the “Selectivity Index” value came to 35.
On to `CCCCCCCCCCCCC[C@@H](O)C[C@@H](O)CC(=O)CCc1ccc(O)cc1`, for which, in series [4], the CC50 at 24 h was 34.5 µM. In the series with Plasmodium falciparum [1] (Plasmodium falciparum, 3D7), this compound came in with a half-inhibitory concentration (IC50) above 10 µM. Also, the “Selectivity Index” value in series [5] amounted to 35.
Consider `CCCCCCCCCCC(CCCCCCCCCC)OC(=O)C[C@H]1C[C@H](O)C[C@@]2(CCC3(C=CC(=O)C=C3)O2)O1` (racemic), for which the CC50 at 24 h in series [4] was 22.1 µM. The IC50 with Plasmodium falciparum [1] (Plasmodium falciparum, 3D7) is 1.15 µM; with Toxoplasma gondii (setting [6]), 4.45 µM. In addition, the “Selectivity Index” value in series [5] and in series [2] was 35 throughout.
As to `CCCCCCCCCCCCC[C@@H]1C[C@@H](O)C[C@]2(CCC3(CCC(=O)CC3)O2)O1` (racemic), the CC50 at 24 h in series [4] came out at 25.6 µM. Also, the half-maximal inhibitory concentration (IC50) in the series on Plasmodium falciparum [1] (Plasmodium falciparum, 3D7) is above 5 µM; in the series on Toxoplasma gondii (setting [6]), 11 µM. Besides, the “Selectivity Index” value in series [2] turned out to be 35.
As for `CCCCCCCCCCCCCCCCCCOC(=O)C[C@H]1C[C@H](O)C[C@@]2(CCC3(C=CC(=O)C=C3)O2)O1` (racemic), the CC50 at 24 h in series [4] turned out to be 13.9 µM. Moreover, the IC50 with Plasmodium falciparum [1] (Plasmodium falciparum, 3D7) came out at 0.77 µM; with Toxoplasma gondii (setting [6]) it was 2.4 µM. Moreover, the “Selectivity Index” value in series [5] and in series [2] was 35 each time.
As for `CCCCCCCCCCCCCCCCCCOC(=O)C[C@H]1C[C@@H](O)C[C@]2(CCC3(C=CC(=O)C=C3)O2)O1` (racemic), the CC50 at 24 h in series [4] was 15.6 µM. Further, the IC50 turned out to be 1.13 µM in the series on Plasmodium falciparum [1] (Plasmodium falciparum, 3D7) and 3.52 µM in the series on Toxoplasma gondii (setting [6]). For the same compound, the “Selectivity Index” value in series [5] and in series [2] was 35 each time.
`CCCCCCCCCCCCCCCCCCOC(=O)C[C@H]1C[C@@H](O)C[C@@]2(CCC3(C=CC(=O)C=C3)O2)O1` (racemic): the CC50 at 24 h in series [4] was 17.5 µM. Also, the IC50 in the series on Plasmodium falciparum [1] (Plasmodium falciparum, 3D7) is 1.03 µM; in the series on Toxoplasma gondii (setting [6]), 3.54 µM. The “Selectivity Index” value in series [5] and in series [2] was 35 throughout.
`CCCOC(=O)C[C@H]1C[C@H](O)C[C@@]2(CCC3(C=CC(=O)C=C3)O2)O1` (racemic): in series [4], the CC50 at 24 h amounted to 109 µM. Further, the IC50 in the series with Plasmodium falciparum [1] (Plasmodium falciparum, 3D7) was 1.84 µM; in the series with Toxoplasma gondii (setting [6]), 0.5 µM. The “Selectivity Index” value in series [2] worked out at 219.
With `CCCCCCN(CCCCCC)C(=O)C[C@H]1C[C@H](O)C[C@@]2(CCC3(C=CC(=O)C=C3)O2)O1` (racemic), the CC50 at 24 h in series [4] came to 0.39 µM. In the series with Plasmodium falciparum [1] (Plasmodium falciparum, 3D7), this compound registered an IC50 of 0.899 µM. Besides, the “Selectivity Index” value in series [5] and in series [2] was 35 in each case.
As for `CCCCCCCCCCCCCC1C[C@H](O)CC2(CCC3(C=CC(=O)C=C3)O2)O1` (single isomer, unassigned), the CC50 at 24 h in series [4] is 22.1 µM. Also, the IC50 in the series on Plasmodium falciparum [1] (Plasmodium falciparum, 3D7) worked out at 0.329 µM; in the series with Toxoplasma gondii (setting [6]), 0.627 µM. The “Selectivity Index” value in series [5] is 35.
As for `CCCCCCCCCCCCCC1C[C@@H](O)CC2(CCC3(C=CC(=O)C=C3)O2)O1` (single isomer, unassigned) [ACULEATIN A], the CC50 at 24 h in series [4] was 26.7 µM. The concentration for half-maximal inhibition (IC50) in the series with Plasmodium falciparum [1] came out at 0.22 µM; in the series with Toxoplasma gondii (setting [6]), 0.436 µM. The “Selectivity Index” value in series [5] and in series [2] was 35 throughout.
With `CCCCCCCCCCCCC[C@@H]1CC(O)CC2(CCC3(C=CC(=O)C=C3)O2)O1` (single isomer, unassigned; form 1) [ACULEATINS B], the CC50 in the series on K562 turned out to be 30.2 µM. For the same compound, the IC50 was 0.451 µM with Plasmodium falciparum [1] and 0.377 µM with Toxoplasma gondii (hff).
Turning to `CCCCCCCCCCCCC[C@@H]1CC(O)CC2(CCC3(C=CC(=O)C=C3)O2)O1` (single isomer, unassigned; form 2), in series [4], the CC50 at 24 h came out at 25.8 µM. Moreover, the IC50 is 0.335 µM with Plasmodium falciparum [1] (Plasmodium falciparum, 3D7) and 0.436 µM in the series with Toxoplasma gondii (hff). Also, the “Selectivity Index” value in series [5] and in series [2] was 35 in each case.
Take `CCCCCCCCCCCCC[C@@H]1CC(O)CC2(CCC3(C=CC(=O)C=C3)O2)O1` (single isomer, unassigned; form 3) [ACULEATINS B]: the CC50 at 24 h in series [4] stood at 30.8 µM. Also, the IC50 was found to be 0.366 µM in the series on Plasmodium falciparum [1] (Plasmodium falciparum, 3D7) and 0.4 µM with Toxoplasma gondii (setting [6]). Moreover, the “Selectivity Index” value in series [5] and in series [2] was 35 throughout.
In the case of `CCCCCCCCCCOC(=O)C[C@H]1C[C@H](O)C[C@@]2(CCC3(C=CC(=O)C=C3)O2)O1` (stereo in doubt), the CC50 at 24 h in series [4] amounted to 28.2 µM. Also, the IC50 worked out at 0.654 µM with Plasmodium falciparum [1] (Plasmodium falciparum, 3D7) and 0.341 µM in the series with Toxoplasma gondii (setting [6]). For the same compound, the “Selectivity Index” value in series [5] and in series [2] was 35 throughout.
`CCCCCCCCCCOC(=O)C[C@@H]1C[C@@H](O)C[C@]2(CCC3(C=CC(=O)C=C3)O2)O1` (stereo in doubt): the CC50 at 24 h in series [4] is 41.2 µM. Besides, the IC50 in the series with Plasmodium falciparum [1] (Plasmodium falciparum, 3D7) was determined as 1.36 µM; in the series with Toxoplasma gondii (setting [6]), 1.63 µM. Besides, the “Selectivity Index” value in series [5] is on record as 35.
Turning to `CCCCCCCCCCCCC[C@H]1C[C@@H](O)C[C@]2(CCC3(C=CC(=O)C=C3)O2)O1` [(+)-ACULEATIN B], the CC50 at 24 h in series [4] turned out to be 27.5 µM. In addition, the IC50 amounted to 0.454 µM in the series with Plasmodium falciparum [1] (Plasmodium falciparum, 3D7); 0.365 µM in the series with Toxoplasma gondii (setting [6]); 0.43 µM with Plasmodium falciparum [3]. Besides, the “Selectivity Index” value in series [5] and in series [2] was 35 each time.
In the case of `CCCCCCCCCCCCC[C@@H]1C[C@@H](O)C[C@]2(CCC3(C=CC(=O)C=C3)O2)O1` [ACULEATIN A], the CC50 in the series on K562 came to 28 µM. Moreover, the IC50 in the series on Plasmodium falciparum [1] was found to be 0.478 µM; with Toxoplasma gondii (hff), 0.64 µM; in the series with Plasmodium falciparum [3], 1 µM.
As to `CCN(CC)CCCC(C)Nc1ccnc2cc(Cl)ccc12` (centres undefined) [CHLOROQUINE], the CC50 at 24 h in series [4] came out at 9.7 µM.

Values taken from ChEMBL document CHEMBL1156632, “Enhanced antimalarial activity of novel synthetic aculeatin derivatives” (J Med Chem, 2008).
